pIC50: −log10 of the molar value. Like-named read-outs stand apart in the source and are kept apart here.
Experiments:
NUGC-3 cells = test: NUGC-3 cell proliferation assay (CTG, 7 days); type: cell-based, human
Method: The cells were cultured in strict accordance with ATCC requirements.
Cell culture medium: 1640 culture medium, 10% serum, 1% penicillin + streptomycin.
Culture conditions: 37°C, 95% air, 5% carbon dioxide.
Compounds (20 mM) were subjected to gradient dilution in DMSO: 10 gradients, 3-fold dilution, duplicate wells.
Positive and negative controls (100% dimethyl sulfoxide) were prepared.
The compounds that were gradient diluted with DMSO and positive and negative controls (1st and 2nd step), each 75 nL, were transferred to 384-well cell culture plates by Echo550.
The cells were washed twice with PBS, digested with trypsin, and centrifuged for cell counting.
The experiment can only be carried out when the cell viability is above 90%.
The cells were plated into 384-well cell culture plates, with 200 (NUGC-3) cells and 30 µL of culture medium per well.
The 384-well microplate was placed in a cell culture incubator for 7 days.
30 µL of CTG detection reagent was added to the 384-well microplate.
The 384-well microplate was incubated for 30 min at 37°C, 5% carbon dioxide in the dark.
The reading was performed by a multi-functional microplate reader Envision.
% Inhibition is calculated as follows: % Inhibition = 100−(Signalcmpd−SignalAve_BL)/(SignalAve_VC−SignalAve_BL)*100 [formula] • Signalcmpd: Average signal of the compound in the cell plate • Signalave_vc: Average signal of the negative control in the cell plate • Signalave_BL: Average signal of the blank wells in the cell plate
IC50 was calculated by fitting % inhibition and compound concentration logarithmically to a nonlinear regression (dose response - variable slope) using Graphpad 8.0. Table 2 IC50 of selected compounds in NUGC-3 cell proliferation assay

p53-Y220C mutant protein = target: T1, p53-Y220C mutant protein (Homo sapiens, UniProt P04637, Y220C); test: In vitro DNA binding activity assay (TR-FRET); type: biochemical; conditions: concentration required to increase the binding activity of protein to DNA by 50%
T1 construct: The recombinant Y220C p53 DBD protein with his-tag
How it was run: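 His-tagged Y220C p53 DBD was equilibrated with compound 60 min at room temperature, then biotin-DNA, anti-6His-Eu and streptavidin-d2 were added and incubated overnight in the dark. TR-FRET 665/615 nm ratio, background-corrected, was expressed as % activity versus vehicle; SC150 is the concentration raising DNA binding by 50%.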

[1] = NUGC-3 cell proliferation, 7 days, CTG, read-out: IC50
[2] = Homo sapiens, NUGC-3, 168 h, NUGC-3 cell proliferation, 7 days, CTG, read-out: IC50

Row | SC150 (p53-Y220C mutant protein) [nM] | Compound | pIC50 (NUGC-3 cells; [2]) | other results
1 | 3 | CC(C1CC1)n1ncc(C(=O)NCC#Cc2nn3c(N[C@@H]4CCN(C)C[C@@H]4F)cccc3c2CC(F)(F)F)c1N (single isomer, unassigned) [Compound 291A] | – | pIC50 (NUGC-3 cells; [1]): 6.78
2 | 4 | CC(C1CC1)n1ncc(C(=O)NCC#Cc2nn3c(N[C@@H]4CCN(C)C[C@@H]4F)cccc3c2CC(F)(F)F)c1N (single isomer, unassigned) [Compound 291B] | – | pIC50 (NUGC-3 cells; [1]): 6.79
3 | 2 | CN(C)C1CC[C@@H](Nc2cccc3c(CC(F)(F)F)c(C#CCNC(=O)c4cnn(C(C)(C)C)c4N)nn23)[C@@H](F)C1 (single isomer, unassigned) [Compound 358-A] | 6.91 | –
4 | – | CN1CC[C@@H](Nc2cccc3c(CC(F)(F)F)c(C#CCNC(=O)c4ccccc4)nn23)[C@@H](F)C1 [Compound 069, N-[3-(7-{[(3S,4R)-3-fluoro-1-methylpiperidin-4-yl]amino}-3-(2,2,2-trifluoroethyl)pyrazolo[1,5-a]pyridin-2-yl)prop-2-yn-1-yl]benzamide] | 5.54 | –
5 | – | COc1ccc(C(=O)NCC#Cc2nn3c(N[C@@H]4CCN(C)C[C@@H]4F)cccc3c2CC(F)(F)F)cc1 [Compound 070, N-[3-(7-{[(3S,4R)-3-fluoro-1-methylpiperidin-4-yl]amino}-3-(2,2,2-trifluoroethyl)pyrazolo[1,5-a]pyridin-2-yl)prop-2-yn-1-yl]-4-methoxybenzamide] | 5.48 | –
6 | – | COc1ccccc1C(=O)NCC#Cc1nn2c(N[C@@H]3CCN(C)C[C@@H]3F)cccc2c1CC(F)(F)F [Compound 071, N-[3-(7-{[(3S,4R)-3-fluoro-1-methylpiperidin-4-yl]amino}-3-(2,2,2-trifluoroethyl)pyrazolo[1,5-a]pyridin-2-yl)prop-2-yn-1-yl]-2-methoxybenzamide] | 5.34 | –
7 | 51 | CN1CC[C@@H](Nc2cccc3c(CC(F)(F)F)c(C#CCNC(=O)c4cccnc4)nn23)[C@@H](F)C1 [Compound 074, N-[3-(7-{[(3S,4R)-3-fluoro-1-methylpiperidin-4-yl]amino}-3-(2,2,2-trifluoroethyl)pyrazolo[1,5-a]pyridin-2-yl)prop-2-yn-1-yl]nicotinamide] | 5.73 | –
8 | 20 | CN1CC[C@@H](Nc2cccc3c(CC(F)(F)F)c(C#CCNC(=O)c4cn(C(C)(C)C)cn4)nn23)[C@@H](F)C1 [Compound 082, 1-tert-butyl-N-[3-(7-{[(3S,4R)-3-fluoro-1-methylpiperidin-4-yl]amino}-3-(2,2,2-trifluoroethyl)pyrazolo[1,5-a]pyridin-2-yl)prop-2-yn-1-yl]-1H-imidazole-4-carboxamide] | 5.96 | –
9 | – | CN1CC[C@@H](Nc2cccc3c(CC(F)(F)F)c(C#CCNC(=O)c4csc(C(C)(C)C)n4)nn23)[C@@H](F)C1 [Compound 088, 2-tert-butyl-N-[3-(7-{[(3S,4R)-3-fluoro-1-methylpiperidin-4-yl]amino}-3-(2,2,2-trifluoroethyl)pyrazolo[1,5-a]pyridin-2-yl)prop-2-yn-1-yl]-1,3-thiazole-4-carboxamide] | 5.15 | –
10 | – | CN1CC[C@@H](Nc2cccc3c(CC(F)(F)F)c(C#CCNC(=O)c4cnc(C(C)(C)C)s4)nn23)[C@@H](F)C1 [Compound 089, 2-tert-butyl-N-[3-(7-{[(3S,4R)-3-fluoro-1-methylpiperidin-4-yl]amino}-3-(2,2,2-trifluoroethyl)pyrazolo[1,5-a]pyridin-2-yl)prop-2-yn-1-yl]-1,3-thiazole-5-carboxamide] | 5.09 | –
11 | – | CN1CC[C@@H](Nc2cccc3c(CC(F)(F)F)c(C#CCNC(=O)c4coc(C(C)(C)C)n4)nn23)[C@@H](F)C1 [Compound 090, 2-tert-butyl-N-[3-(7-{[(3S,4R)-3-fluoro-1-methylpiperidin-4-yl]amino}-3-(2,2,2-trifluoroethyl)pyrazolo[1,5-a]pyridin-2-yl)prop-2-yn-1-yl]-1,3-oxazole-4-carboxamide] | 5.16 | –
12 | 29 | CN1CC[C@@H](Nc2cccc3c(CC(F)(F)F)c(C#CCNC(=O)c4ccc(C(C)(C)O)cc4)nn23)[C@@H](F)C1 [Compound 230, N-[3-(7-{[(3S,4R)-3-fluoro-1-methylpiperidin-4-yl]amino}-3-(2,2,2-trifluoroethyl)pyrazolo[1,5-a]pyridin-2-yl)prop-2-yn-1-yl]-4-(2-hydroxyprop-2-yl)benzamide] | 5.98 | –
13 | 19 | CN1CC[C@@H](Nc2cccc3c(CC(F)(F)F)c(C#CCNC(=O)c4cnn5c4CCC5)nn23)[C@@H](F)C1 [Compound 231, N-[3-(7-{[(3S,4R)-3-fluoro-1-methylpiperidin-4-yl]amino}-3-(2,2,2-trifluoroethyl)pyrazolo[1,5-a]pyridin-2-yl)prop-2-yn-1-yl]-5,6-dihydro-4H-pyrrolo[1,2-b]pyrazole-3-carboxamide] | 6.14 | –
14 | 8 | CN1CC[C@@H](Nc2cccc3c(CC(F)(F)F)c(C#CCNC(=O)c4cnn(C(C)(C)CO)c4)nn23)[C@@H](F)C1 [Compound 232, N-[3-(7-{[(3S,4R)-3-fluoro-1-methylpiperidin-4-yl]amino}-3-(2,2,2-trifluoroethyl)pyrazolo[1,5-a]pyridin-2-yl)prop-2-yn-1-yl]-1-(1-hydroxy-2-methylprop-2-yl)-1H-pyrazole-4-carboxamide] | 6.38 | –
15 | 98 | CC(C)c1c(C#CCNC(=O)c2cnn(C(C)(C)C)c2N)nn2c(N[C@@H]3CCN(C)C[C@@H]3F)cccc12 [Compound 362, 5-amino-1-tert-butyl-N-(3-(7-{[(3S,4R)-3-fluoro-1-methylpiperidin-4-yl]amino}-3-(prop-2-yl)pyrazolo[1,5-a]pyridin-2-yl)prop-2-yn-1-yl)-1H-pyrazole-4-carboxamide] | – | –
16 | – | CCN1CC[C@@H](Nc2cccc3c(CC(F)(F)F)c(C#CCNC(=O)c4cnn(CC)c4N)nn23)[C@@H](F)C1 [Compound 364, 5-amino-1-ethyl-N-(3-(7-{[(3S,4R)-1-ethyl-3-fluoropiperidin-4-yl]amino}-3-(2,2,2-trifluoroethyl)pyrazolo[1,5-a]pyridin-2-yl)prop-2-yn-1-yl)-1H-pyrazole-4-carboxamide] | 6.81 | –
17 | 30 | CN1CCC(Nc2cccc3c(CC(F)(F)F)c(C#CCNC(=O)c4cnn(C(C)(C)C)c4N)nn23)C1 (centres unmarked) [Compound 366, 5-amino-1-tert-butyl-N-(3-(7-[(1-methylpyrrolidin-3-yl)amino]-3-(2,2,2-trifluoroethyl)pyrazolo[1,5-a]pyridin-2-yl)prop-2-yn-1-yl)-1H-pyrazole-4-carboxamide] | – | –
18 | 57 | CN1CC2CCC(C1)C2Nc1cccc2c(CC(F)(F)F)c(C#CCNC(=O)c3cnn(C(C)(C)C)c3N)nn12 (centres unmarked) [Compound 368, 5-amino-1-(tert-butyl)-N-(3-(7-((3-methyl-3-azabicyclo[3.2.1]octan-8-yl)amino)-3-(2,2,2-trifluoroethyl)pyrazolo[1,5-a]pyridin-2-yl)prop-2-yn-1-yl)-1H-pyrazole-4-carboxamide] | – | –
19 | 9 | CN1CCC(Nc2cccc3c(CC(F)(F)F)c(C#CCNC(=O)c4cnn(C(C)(C)C)c4N)nn23)CC1 [Compound 370, 5-amino-1-tert-butyl-N-(3-(7-[(1-methylpiperidin-4-yl)amino]-3-(2,2,2-trifluoroethyl)pyrazolo[1,5-a]pyridin-2-yl)prop-2-yn-1-yl)-1H-pyrazole-4-carboxamide] | – | –
20 | 12 | COCC(O)CN1CCC(Nc2cccc3c(CC(F)(F)F)c(C#CCNC(=O)c4cnn(C(C)(C)C)c4N)nn23)CC1 (centres unmarked) [Compound 371, 5-amino-1-tert-butyl-N-[3-(7-{[1-(2-hydroxy-3-methoxypropy)piperidin-4-yl]amino}-3-(2,2,2-trifluoroethyl)pyrazolo[1,5-a]pyridin-2-yl)prop-2-yn-1-yl]-1H-pyrazole-4-carboxamide] | – | –
21 | 18 | CC(C)(C)n1ncc(C(=O)NCC#Cc2nn3c(N[C@@H]4CCN(C5CC5)C[C@@H]4F)cccc3c2CC(F)(F)F)c1N [Compound 372, 5-amino-1-tert-butyl-N-(3-(7-{[(3S,4R)-1-cyclopropyl-3-fluoropiperidin-4-yl]amino}-3-(2,2,2-trifluoroethyl)pyrazolo[1,5-a]pyridin-2-yl)prop-2-yn-1-yl)-1H-pyrazole-4-carboxamide] | – | –

Row | Compound | SC150 (p53-Y220C mutant protein) [nM] | pIC50 (NUGC-3 cells; [2]) | other results
22 | CN1CC[C@@H](Nc2cccc3c(CC(F)(F)F)c(C#CCNC(=O)C4CC4)nn23)[C@@H](F)C1 [Compound 135, N-[3-(7-{[(3S,4R)-3-fluoro-1-methylpiperidin-4-yl]amino}-3-(2,2,2-trifluoroethyl)pyrazolo[1,5-a]pyridin-2-yl)prop-2-yn-1-yl]cycloproplycarboxamide] | 22 | – | pIC50 (NUGC-3 cells; Homo sapiens, NUGC-3, 168 h): 5.78
23 | CN1CCC2(CC1)CC(Nc1cccc3c(CC(F)(F)F)c(C#CCNC(=O)c4cnn(C(C)(C)C)c4N)nn13)C2 [Compound 367] | 27 | – | –

— patent EP4737449A1 (Changchun Genescience Pharmaceutical Co., Ltd., priority 2023, dated 2025)
